Literature values as cited in patent publication US9662344B2, “Carnitine retention” (The University of Nottingham, priority 2003, dated 2017).
Like-named read-outs stand apart in the source and are kept apart here.

Assays:
[1] = tested on: skeletal muscle carnitine uptake; settings: isolated cells (Georges et al., 2000)
[2] = not given; remark: listed apart in the source
[3] = oral doses of L-carnitine between 2 and 6 g

In the case of C[N+](C)(C)C[C@H](O)CC(=O)[O-] [L-carnitine], the “plasma carnitine concentration of maximum renal reabsorption” value (above this the excess is excreted in urine) is given as 60 to 100 µmol/L, the bioavailability [3] is given as “less than 20%” and the “time of peak plasma concentrations after ingestion” value [3] is given as ~3 h. The Km [1] was 6.4 µM, the “resting skeletal muscle carnitine content” value ([2]; 6 g every day for up to 2 weeks (Vukovich et al 1994)) was “no significant increase” and the VO2 max ([2]; competitive walkers, oral 4 g every day for 2 weeks (Marconi et al 1985)) was “slight but significant increase”. For the same molecule, the “effect on VO2 max, RQ, maximal exercise, fatty acid utilisation, glucose utilisation, lactate, perceived exertion, or heart rate” value ([2]; oral 3-5 g L-carnitine over 5-28 days) was “no effect” and the VO2 max ([2]; single dose 2 g orally an hour before exercise (Vecchiet et al 1990)) was “increase”.
